Measured values from ChEMBL document CHEMBL1147486 (Bioorg Med Chem Lett, 2004).

Assays:
Mus musculus = experiment: Antiinflammatory activity, administered ip at 150 uM/kg dose was determined against carrageenan-induced mice paw edema model; assay type: functional; details: at 150 µmol/kg
Rattus norvegicus [1] = experiment: Body weight change after once daily administration for 4 days in rats was determined; assay type: functional
Rattus norvegicus [2] = experiment: Ulcerogenic activity administered once daily at 1350 uM/kg for 4 days was determined as no of animals showing perforating ulcers; assay type: functional
Rattus norvegicus [3] = experiment: Mortality caused by the compound in rats after administration at 1350 uM/kg for 4 days; assay type: functional
Rattus norvegicus [4] = experiment: Hypolipidemic action at 500 uM/kg was determined as reduction in triglycerides in rat plasma; assay type: functional
Rattus norvegicus [5] = experiment: Hypolipidemic action at 500 uM/kg was determined as reduction in low density lipoprotein in rat plasma; assay type: functional
Rattus norvegicus [6] = experiment: Hypolipidemic action at 500 uM/kg was determined as reduction in total cholesterol in rat plasma
Rattus norvegicus [7] = experiment: Hypolipidemic action at 300 uM/kg was determined as reduction in low density lipoprotein in rat plasma; assay type: functional
Rattus norvegicus [8] = experiment: Hypolipidemic action at 300 uM/kg was determined as reduction in total cholesterol in rat plasma; assay type: functional
Rattus norvegicus [9] = experiment: Ulcerogenic activity administered once daily at 1600 uM/kg for 4 days was determined as no of animals showing perforating ulcers; assay type: functional
Rattus norvegicus [10] = experiment: Mortality caused by the compound in rats after administration at 1600 uM/kg for 4 days; assay type: functional
Rattus norvegicus [11] = experiment: Body weight change after once daily administration at 1600 uM/kg for 4 days in rats was determined; assay type: functional
Rattus norvegicus [12] = experiment: Hypolipidemic action at 300 uM/kg was determined as reduction in triglycerides in rat plasma; assay type: functional
Rattus norvegicus [13] = species: Rattus norvegicus; experiment: In vitro ability to inhibit the peroxidation of rat hepatic microsomal lipids at 1 mM concentration; assay type: functional; details: Liver
Rattus norvegicus [14] = experiment: Body weight change after once daily administration at 200 uM/kg for 4 days in rats was determined; assay type: functional
Rattus norvegicus [15] = species: Rattus norvegicus; experiment: In vitro ability to inhibit the peroxidation of rat hepatic microsomal lipids; assay type: functional; details: Liver
Rattus norvegicus [16] = experiment: Mortality caused by the compound in rats after administration at 200 uM/kg for 4 days; assay type: functional
Rattus norvegicus [17] = experiment: Ulcerogenic activity administered once daily at 200 uM/kg for 4 days was determined as no of animals showing perforating ulcers; assay type: functional
Rattus norvegicus [18] = experiment: Ulcerogenic activity administered once daily at 240 uM/kg for 4 days was determined as no of animals showing perforating ulcers; assay type: functional
Rattus norvegicus [19] = experiment: Mortality caused by the compound in rats after administration at 1200 uM/kg for 4 days; assay type: functional
Rattus norvegicus [20] = experiment: Ulcerogenic activity administered once daily at 1200 uM/kg for 4 days was determined as no of animals showing perforating ulcers; assay type: functional
Rattus norvegicus [21] = experiment: Body weight change after once daily administration at 760 uM/kg for 4 days in rats was determined; assay type: functional
Rattus norvegicus [22] = experiment: Mortality caused by the compound in rats after administration at 760 uM/kg for 4 days; assay type: functional
Rattus norvegicus [23] = experiment: Ulcerogenic activity administered once daily at 760 uM/kg for 4 days was determined as no of animals showing perforating ulcers; assay type: functional
Rattus norvegicus [24] = experiment: Ulcerogenic activity administered once daily at 84 uM/kg for 4 days was determined as no of animals showing perforating ulcers; assay type: functional
Rattus norvegicus [25] = experiment: Body weight change after once daily administration at 84 uM/kg for 4 days in rats was determined; assay type: functional
Rattus norvegicus [26] = experiment: Mortality caused by the compound in rats after administration at 84 uM/kg for 4 days; assay type: functional
Rattus norvegicus [27] = experiment: Hypolipidemic action at 250 uM/kg was determined as reduction in low density lipoprotein in rat plasma; assay type: functional
Rattus norvegicus [28] = experiment: Hypolipidemic action at 250 uM/kg was determined as reduction in triglycerides in rat plasma; assay type: functional
Rattus norvegicus [29] = experiment: Hypolipidemic action at 250 uM/kg was determined as reduction in total cholesterol in rat plasma; assay type: functional
Rattus norvegicus [30] = experiment: Mortality caused by the compound in rats after administration at 240 uM/kg for 4 days; assay type: functional
Rattus norvegicus [31] = experiment: Body weight change after once daily administration at 240 uM/kg for 4 days in rats was determined; assay type: functional
Rattus norvegicus [32] = experiment: Body weight change after once daily administration for 4 days at 84 uM/kg in rats was determined; assay type: functional
Rattus norvegicus [33] = experiment: Ulcerogenic activity administered once daily for 4 days at 84 uM/kg was determined as no of animals showing perforating ulcers; assay type: functional

## CCOC(=O)[C@@H](N)CS.COc1ccc2c(c1)c(CC(=O)O)c(C)n2C(=O)c1ccc(Cl)cc1
Mus musculus
  Edema inhibition: 32.8%
  Paw weight increase: 25.8%

## COc1ccc2cc([C@H](C)C(=O)O)ccc2c1 [NAPROXEN]
Rattus norvegicus [1]
  Body weight change: -15.8 g (100g of body weight)-1
Rattus norvegicus [2]
  Ulcerogenic activity: 100%
Rattus norvegicus [3]
  Mortality: 50%
Mus musculus
  Edema inhibition: 11%
  Paw weight increase: 50.4%
Rattus norvegicus [4]
  Decrease: 25.5%
Rattus norvegicus [5]
  Decrease: 43.5%
Rattus norvegicus [6]
  Decrease: 53%

## CCOC(=O)[C@@H](N)CS.O=C(O)c1ccccc1Nc1cccc(C(F)(F)F)c1
Mus musculus
  Edema inhibition: 9%
  Paw weight increase: 61.9%

## CC(C(=O)O)c1cccc(C(=O)c2ccccc2)c1.CCOC(=O)[C@@H](N)CS (stereo not given)
Mus musculus
  Edema inhibition: 39%
  Paw weight increase: 41.6%

## CC(C)Cc1ccc(C(C)C(=O)O)cc1 (stereo not given) [IBUPROFEN]
Rattus norvegicus [7]
  Decrease: 31.6%
Rattus norvegicus [8]
  Decrease: 38.2%
Rattus norvegicus [9]
  Ulcerogenic activity: 88%
Mus musculus
  Edema inhibition: 35.6%
  Paw weight increase: 31.7%
Rattus norvegicus [10]
  Mortality: 50%
Rattus norvegicus [11]
  Body weight change: -12.7 g (100g of body weight)-1
Rattus norvegicus [12]
  Decrease: 41.6%

## CCOC(=O)[C@@H](N)CS.O=C([O-])Cc1ccccc1Nc1c(Cl)cccc1Cl.[Na+]
Mus musculus
  Edema inhibition: 27.7%
  Paw weight increase: 28.2%

## CCOC(=O)[C@H](CS)NC(=O)C(C)c1cccc(C(=O)c2ccccc2)c1 (stereo not given in full)
Rattus norvegicus [13]
  inhibition: 100%
Rattus norvegicus [14]
  Body weight change: 0.3 g (100g of body weight)-1
Mus musculus
  Edema inhibition: 29%
  Paw weight increase: 48%
Rattus norvegicus [15]
  IC50: 650 µM
Rattus norvegicus [16]
  Mortality: 0%
Rattus norvegicus [17]
  Ulcerogenic activity: 0%

## CCOC(=O)[C@H](CS)NC(=O)C(C)c1ccc2cc(OC)ccc2c1 (stereo not given in full)
Rattus norvegicus [1]
  Body weight change: 9.2 g (100g of body weight)-1
Rattus norvegicus [13]
  inhibition: 100%
Rattus norvegicus [2]
  Ulcerogenic activity: 0%
Rattus norvegicus [3]
  Mortality: 0%
Mus musculus
  Edema inhibition: 37.1%
  Paw weight increase: 35.6%
Rattus norvegicus [15]
  IC50: 28 µM
Rattus norvegicus [4]
  Decrease: 29.6%
Rattus norvegicus [5]
  Decrease: 46.8%
Rattus norvegicus [6]
  Decrease: 33.8%

## O=C([O-])Cc1ccccc1Nc1c(Cl)cccc1Cl.[Na+] [DICLOFENAC SODIUM]
Mus musculus
  Edema inhibition: 37.1%
  Paw weight increase: 24.5%
Rattus norvegicus [4]
  Decrease: 96.1%
Rattus norvegicus [5]
  Decrease: 86.3%
Rattus norvegicus [18]
  Ulcerogenic activity: 75%
Rattus norvegicus [6]
  Decrease: 87.4%

## O=C(O)c1ccccc1Nc1cccc(C(F)(F)F)c1 [FLUFENAMIC ACID]
Rattus norvegicus [1]
  Body weight change: -9.2 g (100g of body weight)-1
Rattus norvegicus [19]
  Mortality: 50%
Mus musculus
  Edema inhibition: 19%
  Paw weight increase: 55.4%
Rattus norvegicus [20]
  Ulcerogenic activity: 50%

## Cc1c(Cl)cccc1Nc1ccccc1C(=O)O [TOLFENAMIC ACID]
Rattus norvegicus [21]
  Body weight change: -5.3 g (100g of body weight)-1
Rattus norvegicus [22]
  Mortality: 50%
Mus musculus
  Edema inhibition: 24%
  Paw weight increase: 27.6%
Rattus norvegicus [23]
  Ulcerogenic activity: 50%

## CC(C(=O)O)c1cccc(C(=O)c2ccccc2)c1 (stereo not given) [KETOPROFEN]
Rattus norvegicus [14]
  Body weight change: -18.9 g (100g of body weight)-1
Mus musculus
  Paw weight increase: 35.9%
Rattus norvegicus [16]
  Mortality: 50%
Rattus norvegicus [17]
  Ulcerogenic activity: 83%

## COc1ccc2c(c1)c(CC(=O)O)c(C)n2C(=O)c1ccc(Cl)cc1 [INDOMETHACIN]
Rattus norvegicus [24]
  Ulcerogenic activity: 80%
Mus musculus
  Edema inhibition: 41.6%
  Paw weight increase: 22.5%
Rattus norvegicus [25]
  Body weight change: -13 g (100g of body weight)-1
Rattus norvegicus [4]
  Decrease: 78.6%
Rattus norvegicus [26]
  Mortality: 50%
Rattus norvegicus [5]
  Decrease: 72.2%
Rattus norvegicus [6]
  Decrease: 74.4%

## CCOC(=O)[C@@H](N)CS
Mus musculus
  Edema inhibition: 24.9%
  Paw weight increase: 29.2%

## CCOC(=O)[C@H](CS)NC(=O)C(C)c1ccc(CC(C)C)cc1 (stereo not given in full)
Rattus norvegicus [1]
  Body weight change: 1 g (100g of body weight)-1
Rattus norvegicus [13]
  inhibition: 100%
Rattus norvegicus [27]
  Decrease: 68.7%
Rattus norvegicus [9]
  Ulcerogenic activity: 0%
Mus musculus
  Edema inhibition: 61.2%
  Paw weight increase: 19.1%
Rattus norvegicus [28]
  Decrease: 27.5%
Rattus norvegicus [15]
  IC50: 38 µM
Rattus norvegicus [10]
  Mortality: 0%
Rattus norvegicus [29]
  Decrease: 48.1%

## CCOC(=O)[C@@H](N)CS.Cc1c(Cl)cccc1Nc1ccccc1C(=O)O
Mus musculus
  Edema inhibition: 25.9%
  Paw weight increase: 25.5%

## CCOC(=O)[C@H](CS)NC(=O)Cc1ccccc1Nc1c(Cl)cccc1Cl
Rattus norvegicus [13]
  inhibition: 100%
Mus musculus
  Edema inhibition: 59.3%
  Paw weight increase: 11.8%
Rattus norvegicus [15]
  IC50: 27 µM
Rattus norvegicus [4]
  Decrease: 31.6%
Rattus norvegicus [30]
  Mortality: 0%
Rattus norvegicus [5]
  Decrease: 92.6%
Rattus norvegicus [18]
  Ulcerogenic activity: 0%
Rattus norvegicus [31]
  Body weight change: 3.1 g (100g of body weight)-1
Rattus norvegicus [6]
  Decrease: 54.7%

## CCOC(=O)[C@H](CS)NC(=O)Cc1c(C)n(C(=O)c2ccc(Cl)cc2)c2ccc(OC)cc12
Rattus norvegicus [32]
  Body weight change: 3.4 g (100g of body weight)-1
Rattus norvegicus [13]
  inhibition: 100%
Rattus norvegicus [33]
  Ulcerogenic activity: 0%
Mus musculus
  Edema inhibition: 63.3%
  Paw weight increase: 14.1%
Rattus norvegicus [15]
  IC50: 51 µM
Rattus norvegicus [4]
  Decrease: 19.8%
Rattus norvegicus [26]
  Mortality: 0%
Rattus norvegicus [5]
  Decrease: 60.5%
Rattus norvegicus [6]
  Decrease: 37%

## CCOC(=O)[C@@H](N)CS.COc1ccc2cc(C(C)C(=O)O)ccc2c1 (stereo not given)
Mus musculus
  Edema inhibition: 38.1%
  Paw weight increase: 30.1%
